The record followed here is ChEMBL document CHEMBL1148674, “Morpholin-2-one derivatives as novel selective T-type Ca2+ channel blockers” (Bioorg Med Chem Lett, 2006).

Chain of Voltage-dependent N-type calcium channel subunit alpha-1B (Homo sapiens) (Q00975 whole entry, looked up): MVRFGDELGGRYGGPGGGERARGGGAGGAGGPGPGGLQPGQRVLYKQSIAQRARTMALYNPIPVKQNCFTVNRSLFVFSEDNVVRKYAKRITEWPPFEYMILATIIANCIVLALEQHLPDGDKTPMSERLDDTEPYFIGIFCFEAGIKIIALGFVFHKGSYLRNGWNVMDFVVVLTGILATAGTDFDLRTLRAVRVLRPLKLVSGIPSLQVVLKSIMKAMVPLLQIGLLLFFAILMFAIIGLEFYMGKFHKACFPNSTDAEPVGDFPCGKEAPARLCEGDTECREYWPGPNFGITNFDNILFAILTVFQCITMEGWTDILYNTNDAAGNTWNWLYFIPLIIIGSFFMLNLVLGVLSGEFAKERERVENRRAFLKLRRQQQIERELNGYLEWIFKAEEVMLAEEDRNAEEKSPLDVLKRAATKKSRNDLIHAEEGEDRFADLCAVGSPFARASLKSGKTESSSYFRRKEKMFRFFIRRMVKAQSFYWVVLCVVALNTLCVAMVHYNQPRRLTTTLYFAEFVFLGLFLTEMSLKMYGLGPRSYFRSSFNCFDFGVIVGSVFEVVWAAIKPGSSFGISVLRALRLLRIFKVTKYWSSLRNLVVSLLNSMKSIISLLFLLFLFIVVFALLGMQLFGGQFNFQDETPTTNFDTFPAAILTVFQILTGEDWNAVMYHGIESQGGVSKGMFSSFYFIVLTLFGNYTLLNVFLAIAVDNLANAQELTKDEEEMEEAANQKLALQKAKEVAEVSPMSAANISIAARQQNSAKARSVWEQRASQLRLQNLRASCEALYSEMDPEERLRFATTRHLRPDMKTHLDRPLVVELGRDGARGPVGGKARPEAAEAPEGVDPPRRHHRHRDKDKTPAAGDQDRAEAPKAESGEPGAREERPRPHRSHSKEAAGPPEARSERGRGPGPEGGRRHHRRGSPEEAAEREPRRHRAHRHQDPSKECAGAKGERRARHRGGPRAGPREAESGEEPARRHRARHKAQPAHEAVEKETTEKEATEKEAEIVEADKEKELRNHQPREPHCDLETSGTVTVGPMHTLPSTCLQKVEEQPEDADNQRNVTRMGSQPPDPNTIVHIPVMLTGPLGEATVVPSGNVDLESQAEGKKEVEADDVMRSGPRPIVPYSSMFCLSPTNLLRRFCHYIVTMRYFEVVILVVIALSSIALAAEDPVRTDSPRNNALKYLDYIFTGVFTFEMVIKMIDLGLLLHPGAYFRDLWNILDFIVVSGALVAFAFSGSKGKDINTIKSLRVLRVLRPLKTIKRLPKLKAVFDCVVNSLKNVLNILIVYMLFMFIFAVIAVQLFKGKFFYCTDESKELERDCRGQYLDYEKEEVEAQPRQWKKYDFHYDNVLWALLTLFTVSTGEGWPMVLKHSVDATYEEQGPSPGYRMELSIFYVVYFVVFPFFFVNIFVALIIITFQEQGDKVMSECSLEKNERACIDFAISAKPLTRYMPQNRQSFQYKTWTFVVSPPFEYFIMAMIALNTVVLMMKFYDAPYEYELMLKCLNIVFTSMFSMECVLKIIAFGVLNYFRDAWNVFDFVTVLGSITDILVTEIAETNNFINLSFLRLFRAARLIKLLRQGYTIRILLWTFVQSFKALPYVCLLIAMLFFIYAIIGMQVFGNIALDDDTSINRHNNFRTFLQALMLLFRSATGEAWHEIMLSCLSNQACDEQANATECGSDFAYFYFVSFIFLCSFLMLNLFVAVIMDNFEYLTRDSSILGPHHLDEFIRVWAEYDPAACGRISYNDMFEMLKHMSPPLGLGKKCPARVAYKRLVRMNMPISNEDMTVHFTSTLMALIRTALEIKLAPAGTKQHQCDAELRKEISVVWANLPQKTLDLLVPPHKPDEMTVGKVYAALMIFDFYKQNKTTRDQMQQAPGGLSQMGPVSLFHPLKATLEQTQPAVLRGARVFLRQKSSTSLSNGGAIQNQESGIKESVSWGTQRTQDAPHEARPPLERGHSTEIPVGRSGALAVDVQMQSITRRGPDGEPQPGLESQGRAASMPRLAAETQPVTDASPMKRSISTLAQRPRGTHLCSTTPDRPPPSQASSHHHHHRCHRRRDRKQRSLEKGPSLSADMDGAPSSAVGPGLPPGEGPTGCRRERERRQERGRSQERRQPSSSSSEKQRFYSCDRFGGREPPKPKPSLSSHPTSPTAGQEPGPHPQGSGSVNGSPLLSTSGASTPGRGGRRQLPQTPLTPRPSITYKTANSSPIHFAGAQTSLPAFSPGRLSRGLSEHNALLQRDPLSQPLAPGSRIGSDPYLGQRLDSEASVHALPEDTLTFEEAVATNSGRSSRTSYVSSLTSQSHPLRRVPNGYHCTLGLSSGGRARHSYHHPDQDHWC

The target of the first test is Voltage-dependent T-type calcium channel subunit alpha-1H (Homo sapiens) (UniProt O95180). In words: Ability to block calcium channel T type 3.2v expressed in Xenopus oocytes at 100 uM by two-microelectrode voltage-clamp method. It counts as functional, cell-based. Particulars: Oocyte.
Chain of Voltage-dependent T-type calcium channel subunit alpha-1H (Homo sapiens) (O95180 whole entry): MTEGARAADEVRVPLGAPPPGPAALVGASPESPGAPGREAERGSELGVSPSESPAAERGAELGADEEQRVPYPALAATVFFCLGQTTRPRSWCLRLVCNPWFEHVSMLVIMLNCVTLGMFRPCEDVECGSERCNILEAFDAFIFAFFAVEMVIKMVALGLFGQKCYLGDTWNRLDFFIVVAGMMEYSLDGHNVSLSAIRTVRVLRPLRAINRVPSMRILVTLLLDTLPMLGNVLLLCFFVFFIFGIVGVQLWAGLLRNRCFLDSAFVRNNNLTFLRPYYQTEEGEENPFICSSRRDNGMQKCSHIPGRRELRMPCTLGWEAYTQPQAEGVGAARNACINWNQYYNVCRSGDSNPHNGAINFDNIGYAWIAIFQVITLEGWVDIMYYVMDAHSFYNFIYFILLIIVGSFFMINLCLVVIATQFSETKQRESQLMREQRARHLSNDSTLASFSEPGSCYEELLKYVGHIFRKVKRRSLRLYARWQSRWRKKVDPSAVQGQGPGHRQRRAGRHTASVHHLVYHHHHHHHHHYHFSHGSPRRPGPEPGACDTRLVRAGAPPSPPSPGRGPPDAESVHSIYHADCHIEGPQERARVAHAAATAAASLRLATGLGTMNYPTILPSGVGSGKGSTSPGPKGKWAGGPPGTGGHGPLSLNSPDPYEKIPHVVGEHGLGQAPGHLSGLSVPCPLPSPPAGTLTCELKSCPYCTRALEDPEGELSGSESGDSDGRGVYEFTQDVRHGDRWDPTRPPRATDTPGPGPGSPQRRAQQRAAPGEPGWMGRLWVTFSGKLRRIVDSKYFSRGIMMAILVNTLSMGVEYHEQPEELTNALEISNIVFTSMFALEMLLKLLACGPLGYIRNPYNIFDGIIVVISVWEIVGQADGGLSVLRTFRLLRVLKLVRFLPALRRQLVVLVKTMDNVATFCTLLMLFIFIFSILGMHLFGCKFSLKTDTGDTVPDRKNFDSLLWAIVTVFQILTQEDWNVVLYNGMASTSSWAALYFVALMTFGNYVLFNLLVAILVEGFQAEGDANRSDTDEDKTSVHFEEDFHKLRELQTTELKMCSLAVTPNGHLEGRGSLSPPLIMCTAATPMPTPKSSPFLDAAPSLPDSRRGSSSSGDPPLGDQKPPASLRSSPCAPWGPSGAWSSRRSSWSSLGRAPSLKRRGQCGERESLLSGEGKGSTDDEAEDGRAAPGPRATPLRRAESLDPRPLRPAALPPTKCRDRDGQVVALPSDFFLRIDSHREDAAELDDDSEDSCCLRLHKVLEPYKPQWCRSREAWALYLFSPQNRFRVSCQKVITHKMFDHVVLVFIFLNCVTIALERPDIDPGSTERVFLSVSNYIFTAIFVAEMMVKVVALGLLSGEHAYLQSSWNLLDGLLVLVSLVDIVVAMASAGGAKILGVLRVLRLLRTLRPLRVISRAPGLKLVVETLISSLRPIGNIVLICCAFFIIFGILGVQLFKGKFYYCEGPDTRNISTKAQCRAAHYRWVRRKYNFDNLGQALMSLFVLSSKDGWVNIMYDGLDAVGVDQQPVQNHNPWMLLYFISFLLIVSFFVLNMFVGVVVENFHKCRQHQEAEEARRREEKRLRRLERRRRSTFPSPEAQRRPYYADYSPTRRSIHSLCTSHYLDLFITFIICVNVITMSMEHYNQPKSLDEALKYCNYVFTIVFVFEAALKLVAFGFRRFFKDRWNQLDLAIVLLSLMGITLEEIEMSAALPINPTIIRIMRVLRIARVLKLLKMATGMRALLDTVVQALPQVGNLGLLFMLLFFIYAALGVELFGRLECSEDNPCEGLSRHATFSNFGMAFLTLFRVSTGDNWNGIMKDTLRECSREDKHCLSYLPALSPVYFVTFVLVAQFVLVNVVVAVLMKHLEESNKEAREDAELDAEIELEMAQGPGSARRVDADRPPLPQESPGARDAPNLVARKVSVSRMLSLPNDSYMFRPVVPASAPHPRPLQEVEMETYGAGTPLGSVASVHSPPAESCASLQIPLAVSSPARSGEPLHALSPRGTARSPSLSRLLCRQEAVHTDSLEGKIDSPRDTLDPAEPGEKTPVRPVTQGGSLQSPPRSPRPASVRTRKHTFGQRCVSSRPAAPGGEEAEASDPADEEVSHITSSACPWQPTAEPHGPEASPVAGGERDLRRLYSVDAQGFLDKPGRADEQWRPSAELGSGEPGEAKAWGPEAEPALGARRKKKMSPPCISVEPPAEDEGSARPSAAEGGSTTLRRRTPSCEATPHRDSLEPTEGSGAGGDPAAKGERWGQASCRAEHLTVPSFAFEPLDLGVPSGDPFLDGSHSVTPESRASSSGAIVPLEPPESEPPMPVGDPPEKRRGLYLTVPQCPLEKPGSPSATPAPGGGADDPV
Regarding `C[C@H](NC(=O)[C@@H]1COC(=O)[C@H](Cc2ccc(F)cc2)N1)c1ccccc1`, the inhibition worked out at 35.6%.

On to `O=C(NC1CCCCC1)[C@@H]1COC(=O)[C@H](Cc2ccccc2)N1` (relative stereo), for which the inhibition worked out at 76%.

With `C[C@H](NC(=O)[C@H]1COC(=O)[C@H](Cc2ccc(O)cc2)N1)c1ccccc1`, the inhibition worked out at 27.6%.

`CCC(C)[C@@H]1N[C@H](C(=O)NCc2ccccc2)COC1=O` (stereo not given in full): the inhibition came out at 70%.

Turning to `O=C1OC[C@H](C(=O)NCc2ccccc2)N[C@H]1Cc1ccccc1` (relative stereo), the inhibition was 5%.

For `Cc1ccc(S(=O)(=O)CNC(=O)[C@@H]2COC(=O)[C@H](Cc3ccccc3)N2)cc1` (relative stereo), the inhibition turned out to be 13%.

On to `C[C@H](NC(=O)[C@@H]1COC(=O)[C@H](Cc2ccc(O)cc2)N1)c1ccccc1`, for which the inhibition stood at 45.8%.

For the molecule `O=C(NCc1ccccc1)[C@@H]1COC(=O)[C@H](Cc2ccc(Cl)cc2)N1` (relative stereo), the inhibition was 73.5%.

Turning to `C[C@H](NC(=O)[C@H]1COC(=O)[C@H](Cc2ccc(F)cc2)N1)c1ccccc1`, the inhibition was 83.6%.

For the molecule `CSCC[C@@H]1N[C@H](C(=O)NCc2ccccc2)COC1=O` (relative stereo), the inhibition stood at 74%.

For `O=C1OC[C@H](C(=O)NC2CCCCC2)N[C@H]1Cc1ccccc1` (relative stereo), the inhibition was 30.3%.

For `O=C1OC[C@H](C(=O)NCc2ccccc2)N[C@H]1Cc1ccc(F)cc1` (relative stereo), the inhibition turned out to be 12.3%.

As to `O=C1OC[C@H](C(=O)NCc2ccccc2)N[C@H]1Cc1ccc(Cl)cc1` (relative stereo), the inhibition came to 19.1%.

On to `O=C(NCc1ccccc1)[C@@H]1COC(=O)[C@H](Cc2ccccc2)N1` (relative stereo), for which the inhibition turned out to be 87%.

`CC(C)(C)NC(=O)[C@H]1COC(=O)[C@H](Cc2ccccc2)N1` (relative stereo): the inhibition turned out to be 42%.

As to `C[C@H](NC(=O)[C@@H]1COC(=O)[C@H](Cc2ccc(Cl)cc2)N1)c1ccccc1`, the inhibition is 48.4%.

`O=C(NCc1ccccc1)[C@@H]1COC(=O)[C@H](Cc2ccc([N+](=O)[O-])cc2)N1` (relative stereo): the inhibition was found to be 74.8%.

Turning to `C[C@H](NC(=O)[C@H]1COC(=O)[C@H](Cc2ccc(Cl)cc2)N1)c1ccccc1`, the inhibition is 73.3%.

On to `O=C1OC[C@H](C(=O)NCc2ccccc2)N[C@H]1Cc1ccc([N+](=O)[O-])cc1` (relative stereo), for which the inhibition was 6.5%.

For the molecule `CC(C)(C)NC(=O)[C@@H]1COC(=O)[C@H](Cc2ccccc2)N1` (relative stereo), the inhibition is 43%.

`C[C@H](NC(=O)[C@H]1COC(=O)[C@H](Cc2ccc([N+](=O)[O-])cc2)N1)c1ccccc1`: the inhibition came to 25.2%.

On to `COc1ccc(C[C@@H]2N[C@H](C(=O)NCc3ccccc3)COC2=O)cc1` (relative stereo), for which the inhibition was 54.6%.

Consider `C[C@H](NC(=O)[C@@H]1COC(=O)[C@H](Cc2ccc([N+](=O)[O-])cc2)N1)c1ccccc1`, for which the inhibition was 60.8%.

Turning to `CC(C)[C@@H]1N[C@H](C(=O)NCc2ccccc2)COC1=O` (relative stereo), the inhibition worked out at 82%.

`O=C(NCc1ccccc1)[C@@H]1COC(=O)[C@H](Cc2ccc(F)cc2)N1` (relative stereo): the inhibition was found to be 70.9%.

With `Cc1ccc(S(=O)(=O)CNC(=O)[C@H]2COC(=O)[C@H](Cc3ccccc3)N2)cc1` (relative stereo), the inhibition was determined as 25%.

Regarding `COc1ccc(C[C@@H]2N[C@@H](C(=O)NCc3ccccc3)COC2=O)cc1` (relative stereo), the inhibition amounted to 16.2%.

In the next test the target is T1, Voltage-dependent T-type calcium channel subunit alpha-1G (Homo sapiens, UniProt O43497). In words: Ability to block calcium channel T type 3.1v expressed in HEK293 cells at 10 uM by whole cell patch clamp method. It counts as functional, cell-based.
Conditions: not given
As to `O=C(NC1CCCCC1)[C@@H]1COC(=O)[C@H](Cc2ccccc2)N1` (relative stereo), the inhibition stood at 73.6%.

On to `CCC(C)[C@@H]1N[C@H](C(=O)NCc2ccccc2)COC1=O` (stereo not given in full), for which the inhibition turned out to be 63.4%.

On to `C[C@H](NC(=O)[C@@H]1COC(=O)[C@H](Cc2ccc(O)cc2)N1)c1ccccc1`, for which the inhibition is 77%.

Take `O=C(NCc1ccccc1)[C@@H]1COC(=O)[C@H](Cc2ccc(Cl)cc2)N1` (relative stereo): the inhibition turned out to be 83.6%.

As for `C[C@H](NC(=O)[C@H]1COC(=O)[C@H](Cc2ccc(F)cc2)N1)c1ccccc1`, the inhibition is 80.8%.

For the molecule `CSCC[C@@H]1N[C@H](C(=O)NCc2ccccc2)COC1=O` (relative stereo), the inhibition came out at 75.1%.

On to `O=C(NCc1ccccc1)[C@@H]1COC(=O)[C@H](Cc2ccccc2)N1` (relative stereo), for which the inhibition was 78.9%.

On to `C[C@H](NC(=O)[C@@H]1COC(=O)[C@H](Cc2ccc(Cl)cc2)N1)c1ccccc1`, for which the inhibition was 64%.

For `O=C(NCc1ccccc1)[C@@H]1COC(=O)[C@H](Cc2ccc([N+](=O)[O-])cc2)N1` (relative stereo), the inhibition stood at 86.2%.

As for `C[C@H](NC(=O)[C@H]1COC(=O)[C@H](Cc2ccc(Cl)cc2)N1)c1ccccc1`, the inhibition came out at 79%.

For `COCC(=O)O[C@]1(CCN(C)CCCc2nc3ccccc3[nH]2)CCc2cc(F)ccc2[C@@H]1C(C)C`, the inhibition was determined as 89.8%.

Turning to `COc1ccc(C[C@@H]2N[C@H](C(=O)NCc3ccccc3)COC2=O)cc1` (relative stereo), the inhibition was 74%.

Turning to `C[C@H](NC(=O)[C@@H]1COC(=O)[C@H](Cc2ccc([N+](=O)[O-])cc2)N1)c1ccccc1`, the inhibition was found to be 80.2%.

Regarding `CC(C)[C@@H]1N[C@H](C(=O)NCc2ccccc2)COC1=O` (relative stereo), the inhibition stood at 78.8%.

Take `O=C(NCc1ccccc1)[C@@H]1COC(=O)[C@H](Cc2ccc(F)cc2)N1` (relative stereo): the inhibition amounted to 77.6%.

In the next test the target is T1, Voltage-dependent T-type calcium channel subunit alpha-1G. In words: Ability to block calcium channel T type 3.1v expressed in HEK293 cells by whole cell patch clamp method. The class given is functional, cell-based.
Conditions: not given
For the molecule `O=C(NC1CCCCC1)[C@@H]1COC(=O)[C@H](Cc2ccccc2)N1` (relative stereo), the IC50 was 2.18 µM.

With `CCC(C)[C@@H]1N[C@H](C(=O)NCc2ccccc2)COC1=O` (stereo not given in full), the IC50 came out at 1.22 µM.

In the case of `C[C@H](NC(=O)[C@@H]1COC(=O)[C@H](Cc2ccc(O)cc2)N1)c1ccccc1`, the IC50 came out at 1.39 µM.

Consider `O=C(NCc1ccccc1)[C@@H]1COC(=O)[C@H](Cc2ccc(Cl)cc2)N1` (relative stereo), for which the 50% inhibitory concentration (IC50) was determined as 0.45 µM.

As to `C[C@H](NC(=O)[C@H]1COC(=O)[C@H](Cc2ccc(F)cc2)N1)c1ccccc1`, the IC50 was 1.48 µM.

Consider `CSCC[C@@H]1N[C@H](C(=O)NCc2ccccc2)COC1=O` (relative stereo), for which the IC50 is 1.86 µM.

As for `O=C(NCc1ccccc1)[C@@H]1COC(=O)[C@H](Cc2ccccc2)N1` (relative stereo), the IC50 worked out at 1.01 µM.

Turning to `C[C@H](NC(=O)[C@@H]1COC(=O)[C@H](Cc2ccc(Cl)cc2)N1)c1ccccc1`, the IC50 came out at 1.61 µM.

Turning to `O=C(NCc1ccccc1)[C@@H]1COC(=O)[C@H](Cc2ccc([N+](=O)[O-])cc2)N1` (relative stereo), the half-maximal inhibitory concentration (IC50) is 1.13 µM.

Regarding `C[C@H](NC(=O)[C@H]1COC(=O)[C@H](Cc2ccc(Cl)cc2)N1)c1ccccc1`, the IC50 came out at 1.33 µM.

With `COc1ccc(C[C@@H]2N[C@H](C(=O)NCc3ccccc3)COC2=O)cc1` (relative stereo), the IC50 was 2.04 µM.

`C[C@H](NC(=O)[C@@H]1COC(=O)[C@H](Cc2ccc([N+](=O)[O-])cc2)N1)c1ccccc1`: the half-inhibitory concentration (IC50) was found to be 2.13 µM.

On to `CC(C)[C@@H]1N[C@H](C(=O)NCc2ccccc2)COC1=O` (relative stereo), for which the IC50 is 0.99 µM.

As for `O=C(NCc1ccccc1)[C@@H]1COC(=O)[C@H](Cc2ccc(F)cc2)N1` (relative stereo), the IC50 amounted to 2.75 µM.

A further test has as its target Voltage-dependent N-type calcium channel subunit alpha-1B (Homo sapiens) (UniProt Q00975). In words: Ability to block calcium channel N type 2.2v expressed in HEK293 cells at 10 uM by whole cell patch clamp method. The class given is functional, cell-based.
Conditions: not given
(In general: The patch-clamp technique gives a direct electrical read-out from membranes.)
For `O=C(NC1CCCCC1)[C@@H]1COC(=O)[C@H](Cc2ccccc2)N1` (relative stereo), the inhibition amounted to 9.4%.

For the molecule `CCC(C)[C@@H]1N[C@H](C(=O)NCc2ccccc2)COC1=O` (stereo not given in full), the inhibition is 1.7%.

Regarding `C[C@H](NC(=O)[C@@H]1COC(=O)[C@H](Cc2ccc(O)cc2)N1)c1ccccc1`, the inhibition turned out to be 4.7%.

As for `O=C(NCc1ccccc1)[C@@H]1COC(=O)[C@H](Cc2ccc(Cl)cc2)N1` (relative stereo), the inhibition is 33.7%.

Regarding `C[C@H](NC(=O)[C@H]1COC(=O)[C@H](Cc2ccc(F)cc2)N1)c1ccccc1`, the inhibition came out at 11.3%.

Regarding `CSCC[C@@H]1N[C@H](C(=O)NCc2ccccc2)COC1=O` (relative stereo), the inhibition stood at 15.4%.

Turning to `O=C(NCc1ccccc1)[C@@H]1COC(=O)[C@H](Cc2ccccc2)N1` (relative stereo), the inhibition was determined as 4.8%.

For `C[C@H](NC(=O)[C@@H]1COC(=O)[C@H](Cc2ccc(Cl)cc2)N1)c1ccccc1`, the inhibition was 10.9%.

Turning to `O=C(NCc1ccccc1)[C@@H]1COC(=O)[C@H](Cc2ccc([N+](=O)[O-])cc2)N1` (relative stereo), the inhibition worked out at 7.6%.

On to `C[C@H](NC(=O)[C@H]1COC(=O)[C@H](Cc2ccc(Cl)cc2)N1)c1ccccc1`, for which the inhibition was 4%.

As for `COCC(=O)O[C@]1(CCN(C)CCCc2nc3ccccc3[nH]2)CCc2cc(F)ccc2[C@@H]1C(C)C`, the inhibition turned out to be 57.4%.

Take `COc1ccc(C[C@@H]2N[C@H](C(=O)NCc3ccccc3)COC2=O)cc1` (relative stereo): the inhibition was 2.5%.

`C[C@H](NC(=O)[C@@H]1COC(=O)[C@H](Cc2ccc([N+](=O)[O-])cc2)N1)c1ccccc1`: the inhibition was found to be 4%.

As for `CC(C)[C@@H]1N[C@H](C(=O)NCc2ccccc2)COC1=O` (relative stereo), the inhibition is 25.3%.

As to `O=C(NCc1ccccc1)[C@@H]1COC(=O)[C@H](Cc2ccc(F)cc2)N1` (relative stereo), the inhibition is 7.1%.

The species named for the next test is Homo sapiens. In words: Selectivity for calcium channel N type 2.2v over calcium channel T type 3.1v.
Conditions: not given
The class given is functional.
Consider `O=C(NC1CCCCC1)[C@@H]1COC(=O)[C@H](Cc2ccccc2)N1` (relative stereo), for which the Ratio was 7.8.

Take `CCC(C)[C@@H]1N[C@H](C(=O)NCc2ccccc2)COC1=O` (stereo not given in full): the Ratio was 37.3.

Take `C[C@H](NC(=O)[C@@H]1COC(=O)[C@H](Cc2ccc(O)cc2)N1)c1ccccc1`: the Ratio came to 16.4.

Regarding `O=C(NCc1ccccc1)[C@@H]1COC(=O)[C@H](Cc2ccc(Cl)cc2)N1` (relative stereo), the Ratio came to 2.5.

As to `C[C@H](NC(=O)[C@H]1COC(=O)[C@H](Cc2ccc(F)cc2)N1)c1ccccc1`, the Ratio was 7.2.

Regarding `CSCC[C@@H]1N[C@H](C(=O)NCc2ccccc2)COC1=O` (relative stereo), the Ratio was determined as 4.9.

Turning to `O=C(NCc1ccccc1)[C@@H]1COC(=O)[C@H](Cc2ccccc2)N1` (relative stereo), the Ratio was 16.4.

Regarding `C[C@H](NC(=O)[C@@H]1COC(=O)[C@H](Cc2ccc(Cl)cc2)N1)c1ccccc1`, the Ratio was 5.9.

For `O=C(NCc1ccccc1)[C@@H]1COC(=O)[C@H](Cc2ccc([N+](=O)[O-])cc2)N1` (relative stereo), the Ratio was 11.3.

Consider `C[C@H](NC(=O)[C@H]1COC(=O)[C@H](Cc2ccc(Cl)cc2)N1)c1ccccc1`, for which the Ratio was found to be 19.8.

In the case of `COc1ccc(C[C@@H]2N[C@H](C(=O)NCc3ccccc3)COC2=O)cc1` (relative stereo), the Ratio is 29.6.

Consider `C[C@H](NC(=O)[C@@H]1COC(=O)[C@H](Cc2ccc([N+](=O)[O-])cc2)N1)c1ccccc1`, for which the Ratio came to 20.1.

`CC(C)[C@@H]1N[C@H](C(=O)NCc2ccccc2)COC1=O` (relative stereo): the Ratio was found to be 3.1.

Consider `O=C(NCc1ccccc1)[C@@H]1COC(=O)[C@H](Cc2ccc(F)cc2)N1` (relative stereo), for which the Ratio was determined as 10.9.

For orientation: inhibition means the percentage by which the read-out fell short of the control. One may read the IC50 as the concentration at which inhibition is half-maximal.
